Marks after values point to notes of the source that are not given here.
Test system: severe traumatic brain injury (sTBI)
Assay: sTBI in rats, HPLC of purine-pyrimidine / energy metabolites in brain (Example 3)
Assay type: in vivo, Male Wistar rats
Conditions: sacrifice 7 days
Procedure: The experimental protocol used in this study was approved by the Ethical Committee of the Catholic University of Rome, according to international standards and guidelines for animal care. Male Wistar rats of 300-350 g body weight (b.w.) were fed with standard laboratory diet and water ad libitum in a controlled environment.
1) n=6 animals subjected to sTBI, with drug administration after 30 minutes and sacrifice at 2 days post-TBI (Acute phase 1)
2) n=6 animals subjected to severe-TBI, with drug administration after 30 minutes and sacrifice at 7 days post-TBI (Acute phase 2).
3) n=6 animals subjected to severe-TBI, with drug administration after 3 days and sacrifice at 7 days post-TBI (Chronic phase).
As the anesthetic mixture, animals received 35 mg/kg b.w. ketamine and 0.25 mg/kg b.w. midazolam by i.p. injection. sTBI was induced by dropping a 450 g weight from 2 m height on to the rat head that had been protected by a metal disk previously fixed on the skull, according to the “weight drop” impact acceleration model (Marmarou et al., A new model of diffuse brain injury in rats. Part I: Pathophysiology and biomechanics. J Neurosurg. 1994; 80: 291-300). […] At the end of each period of treatment, rats were anesthetized again and then immediately sacrificed.
The drug treatment was a subcutaneous injection of 0.5 ml of LMW-DS (15 mg/kg) and administered according to the aforementioned schematic protocol.
An in vivo craniectomy was performed in all animals during anesthesia, after carefully removing the rat's skull, the brain was exposed and removed with a surgical spatula and quickly dropped in liquid nitrogen. After the wet weight (w.w.) determination, tissue preparation was affected as previously disclosed (Tavazzi et al., Cerebral oxidative stress and depression of energy metabolism correlate with severity of diffuse brain injury in rats. Neurosurgery. 2005; 56: 582-589; Vagnozzi et al., Temporal window of metabolic brain vulnerability to concussions: mitochondrial-related impairment-part I. Neurosurgery. 2007; 61: 379-388; Tavazzi et al., Temporal window of metabolic brain vulnerability to concussions: oxidative and nitrosative stresses-part II. Neurosurgery. 2007; 61: 390-395; Amorini et al., Severity of experimental traumatic brain injury modulates changes in concentrations of cerebral free amino acids. J Cell Mol Med. 2017; 21: 530-542.). Briefly, whole brain homogenization was performed with 7 ml of ice-cold, nitrogen-saturated, precipitating solution composed by CH3CN+10 mM KH2PO4, pH 7.40, (3:1; v:v), and using an Ultra-Turrax set at 24,000 rpm/min (Janke & Kunkel, Staufen, Germany). After centrifugation at 20,690×g, for 10 min at 4° C., the clear supernatants were saved, pellets were supplemented with 3 ml of the precipitating solution and homogenized again as described above. A second centrifugation was performed (20,690×g, for 10 min at 4° C.), pellets were saved, supernatants combined with those previously obtained, extracted by vigorous agitation with a double volume of HPLC-grade CHCl3 and centrifuged as above. The upper aqueous phases containing water-soluble low-molecular weight compounds were collected, subjected to chloroform washings for two more times (this procedure allowed the removal of all the organic solvent and of any lipid soluble compound from the buffered tissue extracts), adjusted in volumes with 10 mM KH2PO4, pH 7.40, to have ultimately aqueous 10% tissue homogenates and saved at −80° C. until assayed. […]

[1] = Acute phase 2: 15 mg/kg s.c. 30 min post-sTBI
[2] = Chronic phase: 15 mg/kg s.c. 3 days post-sTBI

Substance: low molecular weight dextran sulfate [LMW-DS]
- NO2, cerebral concentration [1]: 226.40 ± 30.95^b nmol/g (w.w.)
- NO3, cerebral concentration [1]: 198.56 ± 25.93^e,i nmol/g (w.w.)
- UDP, cerebral concentration [1]: 40.38 ± 8.50^a,i nmol/g (w.w.)
- UDP-Gal, cerebral concentration [1]: 145.14 ± 27.76 nmol/g (w.w.)
- UDP-GalNac, cerebral concentration [1]: 19.90 ± 3.12^a,e nmol/g (w.w.)
- UDP-Glc, cerebral concentration [1]: 44.44 ± 7.59^i nmol/g (w.w.)
- UDP-GlcNac, cerebral concentration [1]: 130.65 ± 28.41^a nmol/g (w.w.)
- UMP, cerebral concentration [1]: 138.73 ± 32.01^b nmol/g (w.w.)
- UTP, cerebral concentration [1]: 146.71 ± 32.68^e nmol/g (w.w.)
- acetyl-CoA, cerebral concentration [1]: 36.86 ± 4.11^e nmol/g (w.w.)
- adenine, cerebral concentration [1]: 58.16 ± 6.36^a,f nmol/g (w.w.)
- ascorbic acid, cerebral concentration [1]: 3512.58 ± 224.62^a,e nmol/g (w.w.)
- creatinine, cerebral concentration [1]: 37.27 ± 5.82^a,e,j nmol/g (w.w.)
- cytidine, cerebral concentration [1]: 16.18 ± 4.21^e nmol/g (w.w.)
- cytosine, cerebral concentration [1]: 15.70 ± 4.10^f nmol/g (w.w.)
- guanine, cerebral concentration [1]: 4.73 ± 1.07 nmol/g (w.w.)
- guanosine, cerebral concentration [1]: 17.90 ± 3.24^j nmol/g (w.w.)
- hypoxanthine, cerebral concentration [1]: 12.90 ± 2.58^a,j nmol/g (w.w.)
- inosine, cerebral concentration [1]: 85.52 ± 20.36^e nmol/g (w.w.)
- malonyl-CoA, cerebral concentration [1]: 11.29 ± 2.27^b nmol/g (w.w.)
- orotic acid, cerebral concentration [1]: 13.34 ± 3.65^a nmol/g (w.w.)
- thymidine, cerebral concentration [1]: 0.49 ± 0.20^f nmol/g (w.w.)
- uracil, cerebral concentration [1]: 19.40 ± 7.52^a,e nmol/g (w.w.)
- uric acid, cerebral concentration [1]: 19.17 ± 2.15^a,h,i nmol/g (w.w.)
- uridine, cerebral concentration [1]: 63.02 ± 9.66^b,e nmol/g (w.w.)
- xanthine, cerebral concentration [1]: 10.41 ± 2.11^f nmol/g (w.w.)
- β-pseudouridine, cerebral concentration [1]: 13.26 ± 3.16^a,e,j nmol/g (w.w.)
- ADO, cerebral concentration [2]: 89.97 ± 12.98^a nmol/g (w.w.)
- ADP, cerebral concentration [2]: 315.53 ± 46.53^a nmol/g (w.w.)
- ADP-ribose, cerebral concentration [2]: 173.94 ± 8.45^a nmol/g (w.w.)
- AMP, cerebral concentration [2]: 90.01 ± 21.24^a nmol/g (w.w.)
- ATP, cerebral concentration [2]: 1381.03 ± 212.64^a nmol/g (w.w.)
- CDP choline, cerebral concentration [2]: 8.37 ± 2.19 nmol/g (w.w.)
- CDP, cerebral concentration [2]: 23.55 ± 6.45^a nmol/g (w.w.)
- CMP, cerebral concentration [2]: 20.51 ± 3.73^a,f nmol/g (w.w.)
- CTP, cerebral concentration [2]: 25.23 ± 2.93^a,f nmol/g (w.w.)
- CoA-SH, cerebral concentration [2]: 27.58 ± 6.24^f nmol/g (w.w.)
- GDP glucose, cerebral concentration [2]: 43.85 ± 5.06^b nmol/g (w.w.)
- GDP, cerebral concentration [2]: 173.05 ± 28.68^a,e nmol/g (w.w.)
- GMP, cerebral concentration [2]: 148.56 ± 31.21^a nmol/g (w.w.)
- GSH, cerebral concentration [2]: 2608.67 ± 358.07^a,e nmol/g (w.w.)
- GSSG, cerebral concentration [2]: 231.08 ± 44.34^b,f nmol/g (w.w.)
- GTP, cerebral concentration [2]: 290.92 ± 34.68^a,f nmol/g (w.w.)
- IMP, cerebral concentration [2]: 99.29 ± 13.82^a nmol/g (w.w.)
- MDA, cerebral concentration [2]: 11.62 ± 3.90^a,e nmol/g (w.w.)
- NADH, cerebral concentration [2]: 11.78 ± 3.32^e nmol/g (w.w.)
- NADPH, cerebral concentration [2]: 7.34 ± 2.65^f nmol/g (w.w.)
- NADP^+, cerebral concentration [2]: 16.44 ± 2.66^a,f nmol/g (w.w.)
- NAD^+, cerebral concentration [2]: 301.13 ± 29.90^a nmol/g (w.w.)
- NM, cerebral concentration [2]: 6375.36 ± 974.12^a,e nmol/g (w.w.)
- NO2, cerebral concentration [2]: 217.67 ± 55.04^a nmol/g (w.w.)
- NO3, cerebral concentration [2]: 241.27 ± 18.84^e nmol/g (w.w.)
- UDP, cerebral concentration [2]: 57.40 ± 5.88^a,f nmol/g (w.w.)
- UDP-Gal, cerebral concentration [2]: 122.29 ± 12.15 nmol/g (w.w.)
- UDP-GalNac, cerebral concentration [2]: 21.84 ± 2.80^a,e nmol/g (w.w.)
- UDP-Glc, cerebral concentration [2]: 35.79 ± 3.45^b nmol/g (w.w.)
- UDP-GlcNac, cerebral concentration [2]: 129.42 ± 15.88^b nmol/g (w.w.)
- UMP, cerebral concentration [2]: 103.11 ± 29.79 nmol/g (w.w.)
- UTP, cerebral concentration [2]: 136.80 ± 33.25^f nmol/g (w.w.)
- acetyl-CoA, cerebral concentration [2]: 35.68 ± 6.55^e nmol/g (w.w.)
- adenine, cerebral concentration [2]: 52.94 ± 8.59^a,f nmol/g (w.w.)
- ascorbic acid, cerebral concentration [2]: 3375.03 ± 856.41^a,e nmol/g (w.w.)
- creatinine, cerebral concentration [2]: 51.25 ± 10.17^a,f nmol/g (w.w.)
- cytidine, cerebral concentration [2]: 14.71 ± 2.83^e nmol/g (w.w.)
- cytosine, cerebral concentration [2]: 15.58 ± 2.50^b,f nmol/g (w.w.)
- guanine, cerebral concentration [2]: 5.31 ± 1.04^b nmol/g (w.w.)
- guanosine, cerebral concentration [2]: 28.87 ± 7.60^a,f nmol/g (w.w.)
- hypoxanthine, cerebral concentration [2]: 17.97 ± 4.49^a nmol/g (w.w.)
- inosine, cerebral concentration [2]: 105.81 ± 25.57^f nmol/g (w.w.)
- malonyl-CoA, cerebral concentration [2]: 10.00 ± 1.95^b nmol/g (w.w.)
- orotic acid, cerebral concentration [2]: 12.05 ± 1.50^a nmol/g (w.w.)
- thymidine, cerebral concentration [2]: 0.71 ± 0.11 nmol/g (w.w.)
- uracil, cerebral concentration [2]: 16.57 ± 2.99^a,f nmol/g (w.w.)
- uric acid, cerebral concentration [2]: 27.77 ± 3.60^a nmol/g (w.w.)
- uridine, cerebral concentration [2]: 63.28 ± 3.37^f nmol/g (w.w.)
- xanthine, cerebral concentration [2]: 9.35 ± 0.83^f nmol/g (w.w.)
- β-pseudouridine, cerebral concentration [2]: 18.62 ± 2.80^a nmol/g (w.w.)

— patent US11534457B2, “Use of dextran sulfate” (priority 2017, dated 2022)
